Test results reported in PubChem BioAssay (NCI).
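Growth conditions: 96-well plates. Treatment: test compound, 48 hours, 5 concentrations. Analysis: linear interpolation between bracketing concentrations; unreached endpoints set to highest concentration. At the GI50, growth is halved. TGI: concentration producing complete growth inhibition.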

Legend:
Test in all cases: DTP human tumour cell line panel, 48 h
NCI-H226 lung = system: NCI-H226 lung
NCI-H23 lung = system: NCI-H23 lung
NCI-H460 lung = system: NCI-H460 lung
NCI-H522 lung = system: NCI-H522 lung
NCI/ADR-RES ovarian = system: NCI/ADR-RES ovarian
OVCAR-3 ovarian = system: OVCAR-3 ovarian
OVCAR-4 ovarian = system: OVCAR-4 ovarian
OVCAR-5 ovarian = system: OVCAR-5 ovarian
OVCAR-8 ovarian = system: OVCAR-8 ovarian
PC-3 prostate = system: PC-3 prostate
RPMI-8226 leukemia = system: RPMI-8226 leukemia
RXF 393 renal = system: RXF 393 renal
SF-268 CNS = system: SF-268 CNS
SF-295 CNS = system: SF-295 CNS
SK-MEL-2 melanoma = system: SK-MEL-2 melanoma
SK-MEL-28 melanoma = system: SK-MEL-28 melanoma
SK-MEL-5 melanoma = system: SK-MEL-5 melanoma
SK-OV-3 ovarian = system: SK-OV-3 ovarian
SN12C renal = system: SN12C renal
SNB-19 CNS = system: SNB-19 CNS
SNB-75 CNS = system: SNB-75 CNS
SR leukemia = system: SR leukemia
SW-620 colon = system: SW-620 colon
T-47D breast = system: T-47D breast
TK-10 renal = system: TK-10 renal
U251 CNS = system: U251 CNS
UACC-257 melanoma = system: UACC-257 melanoma
UACC-62 melanoma = system: UACC-62 melanoma
UO-31 renal = system: UO-31 renal

Nc1nc2c(c3ncccc13)C(c1cccc(Br)c1)Cc1ncccc1-2 (configuration not stated)
TGI (NCI-H226 lung): 67.4 µM
GI50 (NCI-H23 lung): 4.52 µM
TGI (NCI-H23 lung): 33 µM
GI50 (NCI-H460 lung): 0.492 µM
TGI (NCI-H460 lung): 11 µM
GI50 (NCI-H522 lung): 0.503 µM
TGI (NCI-H522 lung): 11.6 µM
GI50 (NCI/ADR-RES ovarian): 0.408 µM
TGI (NCI/ADR-RES ovarian): 15.1 µM
GI50 (OVCAR-3 ovarian): 0.28 µM
TGI (OVCAR-3 ovarian): 0.858 µM
GI50 (OVCAR-4 ovarian): 7.13 µM
TGI (OVCAR-4 ovarian): 41 µM
GI50 (OVCAR-5 ovarian): 7.84 µM
TGI (OVCAR-5 ovarian): 31.1 µM
GI50 (OVCAR-8 ovarian): 5.24 µM
TGI (OVCAR-8 ovarian): 58 µM
GI50 (PC-3 prostate): 0.791 µM
TGI (PC-3 prostate): 18.5 µM
GI50 (RPMI-8226 leukemia): 5.43 µM
TGI (RPMI-8226 leukemia): 48.7 µM
GI50 (RXF 393 renal): 0.765 µM
TGI (RXF 393 renal): 4.06 µM
GI50 (SF-268 CNS): 0.808 µM
TGI (SF-268 CNS): 20.1 µM
GI50 (SF-295 CNS): 0.828 µM
TGI (SF-295 CNS): 12.4 µM
GI50 (SK-MEL-2 melanoma): 0.871 µM
TGI (SK-MEL-2 melanoma): 29.6 µM
GI50 (SK-MEL-28 melanoma): 2.74 µM
TGI (SK-MEL-28 melanoma): 22.6 µM
GI50 (SK-MEL-5 melanoma): 0.576 µM
TGI (SK-MEL-5 melanoma): 14.3 µM
GI50 (SK-OV-3 ovarian): 0.74 µM
TGI (SK-OV-3 ovarian): 17.4 µM
GI50 (SN12C renal): 3.51 µM
TGI (SN12C renal): 33.8 µM
GI50 (SNB-19 CNS): 11.5 µM
TGI (SNB-19 CNS): 25 µM
GI50 (SNB-75 CNS): 0.3 µM
TGI (SNB-75 CNS): 13.4 µM
GI50 (SR leukemia): 0.377 µM
TGI (SR leukemia): 32.7 µM
GI50 (SW-620 colon): 0.479 µM
TGI (SW-620 colon): 21.8 µM
GI50 (T-47D breast): 0.524 µM
TGI (T-47D breast): 38.7 µM
GI50 (TK-10 renal): 7.94 µM
TGI (TK-10 renal): 56.2 µM
GI50 (U251 CNS): 0.625 µM
TGI (U251 CNS): 12.7 µM
GI50 (UACC-257 melanoma): 18.2 µM
TGI (UACC-257 melanoma): 54.7 µM
GI50 (UACC-62 melanoma): 0.436 µM
TGI (UACC-62 melanoma): 17.4 µM
GI50 (UO-31 renal): 2.6 µM
TGI (UO-31 renal): 24.2 µM
